Patent US20240245707A1, “COMPOSITIONS FOR TREATING INSOMNIA AND USES THEREOF” (Zhejiang Jiachi Development Pharmaceuticals LTD., priority 2021, published 2024)
Where “and” joins values, the source holds several entries; their conditions need not be identical. Equal values may be shown once. Entries after “also recorded” stand apart in the source; their conditions may differ.

Key:
[1] = system: postmenopausal women having insomnia; assay: Self-assessment of insomnia with Athens Insomnia Scale (AIS) before and after taking anordrin; format: in vivo, human
Description: Insomnia is usually measured using sleep disorder questionnaire (SDQ) such as Pittsburgh sleep quality index (PSQI), Epworth Sleeping Scale or the Athens Insomnia Scale (AIS), or using sleep quality monitor to count sleep dysfunction rating scale (SDRS). AIS is the one of popularly used SEQ. It is measured by assessing eight factors amongst which first five factors are related to nocturnal sleep and last three factors are related to daytime dysfunction. These are rated on a 0-3 scale and the sleep is finally evaluated from the cumulative score of all factors and reported as an individual's sleep outcome. Over the period of time, AIS is considered to be an effective tool in sleep analysis, and it is validated in various countries by testing it on local patients. A cut-off score of at least 6 on the AIS is used to establish the diagnosis of insomnia. See Soldatos C R, Dikeos D G, Paparrigopoulos T J (2002). “The diagnostic validity of the Athens Insomnia Scale”. J Psychosom Res. 55 (3): 263-7.
Individuals who have taken anordrin (less than 1 mg) were self-assessed for the presence and the extent of insomnia before and after they took anordrin. Specifically, thirteen postmenopausal women took anordrin for about two weeks to a few months. Their sleep quality were evaluated with Athens Insomnia Scale (AIS).

[2] = system: postmenopausal women with chronic insomnia; assay: Phase II clinical trial of α-anordrin enteric-coated tablets, Athens Insomnia Scale (AIS) index, preliminary results; format: in vivo, human
Description: This Phase II clinical trial uses a randomized, double-blind, parallel-controlled design and is conducted in three clinical trial centers. A total of three drug groups are pre-set which are a) the 0.05 mg/day dosing group, b) the 0.1 mg/day dosing group, and c) the 0.15 mg/day dosing group as well as the placebo group. The drug intervention period is 8 weeks, and the drug intervention is followed up for 4 weeks. Primary efficacy endpoint includes vaginal detachment cell maturity index and dryness in postmenopausal women. Secondary efficacy endpoint includes quality in postmenopausal women, vaginal microecological index, vaginal pH in postmenopausal women, as well as the safety endpoint. The effectiveness and safety of different doses of α-anordrin tablets are preliminarily evaluated.
Group 1 (0.05 mg dose group): daily oral administration of one 0.05 mg α-anordrin enteric-coated tablet. Group 2 (0.1 mg dose group): daily oral administration of one 0.1 mg α-anordrin enteric-coated tablet. Group 3 (0.15 mg dose group): daily oral administration of one 0.15 mg α-anordrin enteric-coated tablet. Group 4: placebo group. […]

[3] = system: rat primary neuronal cells; assay: ATP level of neuronal cells treated with anordrin (ATP assay kit); format: cell-based; conditions: 10 nM anordrin, 24 hours, vs vehicle; FIG. 5
Description: See Chikahisa et al., Front Neurol. 2011; 2: 87.
Materials and equipment include cell culture medium, FBS and Charcoal stripped FBS, ATP assay kit (Thermofisher) and rat primary neuronal cells (Wuhan servisebio).
Primary neuronal cells (2×10^6) were grew in medium containing 10% FBS in 6 well plates for 24 hours. Then the medium was replaced with phenol red free medium contain 5% Charcoal stripped FBS for 24 hours. 10 nM anordrin or vechile were added in medium for 24 hours, and then cells were harvested. The fluorescence density of ATP was assayed using ATP assay kit following manufacture's instruction.

## C#C[C@@]1(OC(=O)CC)C[C@@H]2CC[C@@H]3[C@H](CC[C@@]4(C)[C@H]3CC[C@]4(C#C)OC(=O)CC)[C@@]2(C)C1 [anordrin, 2α, 17α-diethynyl-A-nor-5α-androstane-2β,17β-diol dipropionate]
[1]; after vs before treatment, thirteen postmenopausal women
  decrease of the average number of AIS: 63%
[1]; anordrin at various dosages, Example 1
  postmenopausal women having insomnia that exhibited a significant improvement in sleeping: 100%
[1]; thirteen postmenopausal women, FIG. 3 and Table 1
  numbers of AIS for each patient after treatment (in words): significantly decreased
[1]; thirteen postmenopausal women, average before treatment 17.4, STDEV 1.2, p value <0.0001
  Average # of AIS after treatment: 6.3
[2]; one patient per row, 0.05 mg/day oral, before treatment 12-19, preliminary results
  AIS number (after treatment): 4 and 5 (2×)
[2]; three patients, 0.05 mg/day
  sleeping quality after treatment (in words): significantly improved sleeping quality
[3]
  ATP level of neuronal cells: significantly increased; also recorded: induces ATP surge
